According to article PMC4550221 (Bioorganic & medicinal chemistry, 2015):
Counter-ions that a name gives are not always drawn. Like-named read-outs stand apart in the source and are kept apart here. Each block holds one molecule with its values, some of them ahead of it.

Columns and labels:
P. falciparum 3D7 [1] = test: Inhibition of parasite growth in P. falciparum 3D7-infected red blood cells; format: cell-based, Plasmodium falciparum; conditions: for 3D7 potency described in words (relative to comparator): comparator 4e unless 4-series (4a); for fold loss in 3D7 potency: R8 changes relative to parent analog (4a series); for IC50: Plasmodium falciparum, 3D7, Erythrocyte; for fold reduction in 3D7 potency: relative to 4e (isopentyl R1)
HepG2 72 h cytotoxicity = conditions: human, HepG2 cells
[2] = Rat PK experiment in vivo; conditions: iv, 1 mg/kg
Plasmodium = conditions: read-out: reported EC50; Novartis-GNF collection, GNF-Pf-5345; cited from earlier work
HepG2 cells = test: HepG2 72 h cytotoxicity; conditions: HepG2 cytotoxicity vs antimalarial activity
P. falciparum 3D7 [3] = conditions: read-out: reported XC50; TCAMS screening dataset; cited from earlier work

SMILES: CCN1C(=O)N(CCC(C)C)C2(CCN(Cc3ccccc3O)CC2)C1=O [Compound 4d]
3D7 potency described in words (relative to comparator) (P. falciparum 3D7 [1]): did not have a significant impact on potency

SMILES: CCN1C(=O)N(CCC(C)C)C2(CCN(Cc3c(O)cccc3Cl)CC2)C1=O [Compound 12g]
3D7 potency described in words (relative to comparator) (P. falciparum 3D7 [1]): essentially equipotent

SMILES: CCN1C(=O)N(CCC(C)C)C2(CCN(Cc3cccc(OC)c3O)CC2)C1=O [Compound 4b]
fold loss in 3D7 potency (P. falciparum 3D7 [1]): 6 fold

SMILES: CC(C)CCN1C(=O)N(C(C)C)C(=O)C12CCN(Cc1cc(Cl)ccc1O)CC2 [Compound 11b]
3D7 potency described in words (relative to comparator) (P. falciparum 3D7 [1]): improved potency three-fold

SMILES: CCN1C(=O)N(CCC(C)C)C2(CCN(Cc3ccc(OC)cc3OC)CC2)C1=O [Compound 4g]
fold loss in 3D7 potency (P. falciparum 3D7 [1]): 8- to 60 fold

SMILES: CCN1C(=O)N(CCC(C)C)C2(CCN(Cc3cc(-c4ccccc4)ccc3O)CC2)C1=O [Compound 12f]
IC50 at 72 h (HepG2 72 h cytotoxicity): > 50000 nM

SMILES: CCN1C(=O)N(c2ccccc2)C2(CCN(Cc3cc(Cl)ccc3O)CC2)C1=O [Compound 10d]
3D7 potency described in words (relative to comparator) (P. falciparum 3D7 [1]): detrimental to potency

SMILES: CCN1C(=O)N(Cc2ccccc2)C2(CCN(Cc3cc(Cl)ccc3O)CC2)C1=O [Compound 10e]
3D7 potency described in words (relative to comparator) (P. falciparum 3D7 [1]): roughly equipotent

SMILES: CCN1C(=O)N(CCC(C)C)C2(CCN(Cc3cc(Cl)ccc3O)CC2)C1=O [Compound 4e, 8-(5-chloro-2-hydroxybenzyl)-3-ethyl-1-isopentyl-1,3,8-triazaspiro[4.5]decane-2,4-dione hydrochloride]
IC50 (P. falciparum 3D7 [1]; read-out: IC50 in P. falciparum 3D7 infected erythrocytes): 310 nM
3D7 potency described in words (relative to comparator) (P. falciparum 3D7 [1]): about a five-fold improvement in potency
clearance [2]: 152 mL/min/kg
EC50 (Plasmodium): 349 nM
selectivity index (HepG2 cells): > 100

SMILES: CCN1C(=O)N(CCC(C)C)C2(CCN(Cc3cc(Cl)cc(Cl)c3O)CC2)C1=O [Compound 12j]
3D7 potency described in words (relative to comparator) (P. falciparum 3D7 [1]): equipotent

SMILES: CCN1C(=O)N(CCC(C)C)C2(CCN(Cc3cc(O)cc(Cl)c3)CC2)C1=O [Compound 12a]
3D7 potency described in words (relative to comparator) (P. falciparum 3D7 [1]): increasingly detrimental to 3D7 potency

SMILES: CCN1C(=O)N(CCC(C)C)C2(CCN(Cc3ccc(OC)cc3O)CC2)C1=O [Compound 4a]
IC50 (P. falciparum 3D7 [3]): 840 nM

SMILES: CCN1C(=O)N(CCC(C)C)C2(CCN(C(=O)c3cc(Cl)ccc3O)CC2)C1=O [Compound 12m]
3D7 potency described in words (relative to comparator) (P. falciparum 3D7 [1]): lack of 3D7 potency

SMILES: CCN1C(=O)N(Cc2ccc(OC)cc2)C2(CCN(Cc3cc(Cl)ccc3O)CC2)C1=O [Compound 10g]
3D7 potency described in words (relative to comparator) (P. falciparum 3D7 [1]): tolerated with some modest effects on potency

SMILES: CC(C)CCN1C(=O)N(Cc2cccnc2)C(=O)C12CCN(Cc1cc(Cl)ccc1O)CC2 [Compound 11c]
3D7 potency described in words (relative to comparator) (P. falciparum 3D7 [1]): modest two-three-fold losses of potency

SMILES: CC(C)CCN1C(=O)NC(=O)C12CCN(Cc1cc(Cl)ccc1O)CC2 [Compound 11a]
3D7 potency described in words (relative to comparator) (P. falciparum 3D7 [1]): dramatic loss in activity

SMILES: CCN1C(=O)N(CCC(C)C)C2(CCN(Cc3ccc(Cl)cc3O)CC2)C1=O [Compound 12h]
3D7 potency described in words (relative to comparator) (P. falciparum 3D7 [1]): three- to seven-fold less potent
IC50 at 72 h (HepG2 72 h cytotoxicity): > 50000 nM

SMILES: CCN1C(=O)N(C2CCCC2)C2(CCN(Cc3cc(Cl)ccc3O)CC2)C1=O [Compound 10c]
3D7 potency described in words (relative to comparator) (P. falciparum 3D7 [1]): well tolerated

SMILES: CCN1C(=O)N(CC)C2(CCN(Cc3cc(Cl)ccc3O)CC2)C1=O [Compound 10b]
fold reduction in 3D7 potency (P. falciparum 3D7 [1]): ≥ 20 fold

SMILES: CCN1C(=O)N(CCC(C)C)C2(CCN(Cc3cccc(Cl)c3)CC2)C1=O [Compound 4f]
fold loss in 3D7 potency (P. falciparum 3D7 [1]): 8- to 60 fold

IC50 (P. falciparum 3D7 [1]; read-out: IC50 in P. falciparum 3D7 infected erythrocytes, 3D7 (chloroquine-sensitive) strain): 99 nM
SMILES: CCN1C(=O)N(CCC(C)C)C2(CCN(Cc3cc(Cl)c(Cl)cc3O)CC2)C1=O [Compound 12k]
IC50 at 72 h (HepG2 72 h cytotoxicity): > 50000 nM
selectivity index (HepG2 cells): greater than 500

SMILES: CC(C)CCN1C(=O)N(CCCc2ccncc2)C(=O)C12CCN(Cc1cc(Cl)ccc1O)CC2 [Compound 11d]
3D7 potency described in words (relative to comparator) (P. falciparum 3D7 [1]): modest two-three-fold losses of potency

SMILES: CCN1C(=O)N(CCc2ccccc2)C2(CCN(Cc3cc(Cl)ccc3O)CC2)C1=O [Compound 10f]
3D7 potency described in words (relative to comparator) (P. falciparum 3D7 [1]): roughly equipotent

SMILES: CCN1C(=O)N(CCC(C)C)C2(CCN(Cc3cccc4cc[nH]c34)CC2)C1=O [Compound 12u]
3D7 potency described in words (relative to comparator) (P. falciparum 3D7 [1]): hint of potency

SMILES: CCN1C(=O)N(Cc2ccc(C#N)cc2)C2(CCN(Cc3cc(Cl)ccc3O)CC2)C1=O [Compound 10h]
3D7 potency described in words (relative to comparator) (P. falciparum 3D7 [1]): tolerated with some modest effects on potency

SMILES: CCN1C(=O)NC2(CCN(Cc3cc(Cl)ccc3O)CC2)C1=O [Compound 10a]
fold reduction in 3D7 potency (P. falciparum 3D7 [1]): ≥ 20 fold

SMILES: CCN1C(=O)N(CCC(C)C)C2(CCN(Cc3cc(Br)ccc3O)CC2)C1=O [Compound 12d]
3D7 potency described in words (relative to comparator) (P. falciparum 3D7 [1]): well tolerated
